Results reported in publication PMC11206507, “Unraveling the Impact of Six Pentacyclic Triterpenes Regulating Metabolic Pathways on Lung Carcinoma Cells” (Pharmaceuticals, 2024).
“Also recorded” adds a separate entry of the source. Where two headings read alike, the source gives them in different places.

Assays:
MAPK/PI3K = MAPK/PI3K protein expression (dual pathway activation kit, flow cytometry); type: cell-based, human; conditions: for MAPK/PI3K expression (in words): A549, IC25, 24 h, vs untreated cells; for MAPK/PI3K inhibition: summary, NSCLC A549 cells; as to MAPK/PI3K inhibition: key: '✔' means induction; '-' means non-induction of any of the tested processes
Method: (§1) We used flow cytometry to analyze several cellular mechanistic pathways in A549 cells after incubation with the triterpenes. In general, the cells were seeded in a 6-well plate at a density of 1 × 10^6 cells/mL and incubated for 24 h in supplemented DMEM. After 24 h, the A549 cells were treated with the triterpenes, following each manufacturer’s protocol. All of the following experiments were performed in a Muse® Cell Analyzer (EMD Millipore Corporation, Temecula, CA). The instrument was calibrated before each assay using the Muse® System Check Kit (Luminex MCH100101, Luminex Corporation). Each assay was run at least in two independent experiments. For each experiment, all samples were analyzed in triplicate in the instrument and the capillary line was washed after each sample run to avoid artifacts. In addition, to address the issue of cell doublets, we used the Muse® Cell Dispersal Reagent (Luminex Corporation) in all experiments. The concentration of the triterpenes in each assay was selected depending on the cellular concentration necessary to generate the gain signal in the instrument. This means that we attempted to select concentrations avoiding excessive cytotoxicity to accurately determine the respective signal from each assay.
The Muse® P13K/MAPK Dual Pathway Activation Kit (Luminex MCH200108, Luminex Corporation) was used to determine MAPK/PI3K expression. After the incubation treatment with the triterpenes (IC25) for 24 h, the A549 cells were scraped, centrifuged, and washed once with 1× PBS. Next, the fixation buffer was incubated for 10 min and then the permeabilization buffer for another 10 min. Both incubations were performed on ice. Later, the antibody cocktail containing anti-phospho-Akt and anti-phospho-ERK1/2 was incubated for 30 min. Afterward, the cell pellet was washed and suspended in fresh assay buffer for measurement.

NSCLC A549 cells [1] = system: NSCLC A549 cells; design: method as in PMID 31338398; conditions: 24 h, MTS/PMS; already obtained by the authors; cited from earlier work
caspase 3 = assay: Caspase 3 activity assay (Apo-ONE Caspase-3/7); type: cell-based, human; conditions: for Caspase 3 activation (in words): A549, IC50, 24 h, vs untreated cells and CisPt
Method: The intrinsic apoptosis activity was evaluated by the quantification of caspase 3 enzymatic activity using the Apo-ONE® Homogeneous Caspase-3/7 Assay (Promega G7792). A549 cells were seeded in a concentration of 1 × 10^5 cells/mL into black 96-well plates with a clear bottom. […] After the completion of the incubation, 50 μL of Apo-ONE® Caspase-3/7 Reagent (1:100 rhodamine 110 bis-(N-CBZ-l-aspartyl-l-glutamyl-l-valyl-aspartic acid amide) (Z-DEVD-R110) substrate diluted in lysis buffer) was added to each well. The plate was gently mixed using a plate shaker at 150 rpm for 2 h at room temperature. Then, the fluorescence of each well was measured (Ex/Em = 485/530 nm) in the Tecan® M200 plate reader.
The caspase 3 activity experiments were performed in triplicate. All data were expressed by plotting the values with an average of three measurements for each treatment condition as the mean ± SD and analyzed with the software GraphPad Prism 9 (San Diego, CA, USA). Statistical analysis was performed using one-way analysis of variance (ANOVA) to compare the mean value of each type of treated cells versus the control (untreated cells). The statistical significance defined by the software for p values was **** < 0.0001, *** from 0.001 to 0.0001, ** from 0.001 to 0.01, * from 0.01 to 0.05, and non-significant (ns) ≥ 0.05.

A549 cells = assay: Externalization of phosphatidylserine, Annexin V confocal microscopy; type: cell-based, human; conditions: A549, IC25, 24 h
Method: Early apoptotic activity was evaluated by the externalization of PS using the Alexa Fluor® 488 Annexin V Apoptosis Reagent (Molecular Probes™) and NucBlue ReadyProbes Reagent™ (Thermo Fisher Scientific). For this assay, A549 cells were seeded in 8-well cover slip plates with a density of 1 × 10^5 cells/mL for 24 h in supplemented DMEM. Then, the A549 cells were incubated with the triterpenes (IC25) and controls for 24 h. Afterward, the cells were washed with 1× PBS and incubated with NucBlue (DAPI analog) and Annexin V for 15 min in the dark. The cells were fixed with 3.7% formaldehyde solution for 15 min, washed three times with 1× PBS, and covered with glycerol before visualization. The plates were observed by confocal microscopy using a Nikon Eclipse Ti microscope (Nikon Instruments Inc., El Segundo, CA, USA), utilizing a 20× oil objective with filter sets compatible with DAPI (Ex/Em = 405/460 nm) and Annexin V Alexa Fluor (Ex/Em = 488/525 nm). The fluorescence intensity was analyzed using the NIS-Elements Viewer program (version 5.21 64-bit) (Nikon Instruments Inc.). Each sample was analyzed in duplicate in two independent experiments. The fluorescence intensity was adjusted using untreated cells for each fluorescence channel (green and blue). Subsequently, this calibrated intensity was applied for the analysis of all treated cells.

LC3-II = assay: Autophagy induction assay (LC3 antibody, flow cytometry); type: cell-based, human; conditions: for Autophagic response (in words): A549, IC25, 24 h, vs controls (untreated ratio 0.8, starving ratio 1); for Autophagy inhibition: summary, NSCLC A549 cells
Method: as §1
The Muse® Autophagy LC3 Antibody-Based Kit (Luminex MCH200109, Luminex Corporation) was used to determine autophagy activation by monitoring lipidated LC3-II. After the A549 cells were treated with the triterpenes (IC25) for 24 h, autophagy reagent A was added for 4 h to prevent the lysosomal degradation of LC3-II. Then, the cells were detached and centrifuged. The pellet was suspended and incubated for 30 min in the autophagy reagent B containing anti-LC3-II mouse monoclonal antibody. Finally, the cell pellet was washed and suspended in fresh assay buffer for measurement. The autophagy response was calculated using the following formula:
Autophagy ratio = mean autophagy value of treated or untreated cells/mean autophagy value of starving cells.
The starving cells were labeled ‘No supp’ as non-supplemented cells. These served as the positive signal for autophagy and were designated a ratio of 1 since they were compared to themselves. A ratio ≥1 indicates the activation of the autophagic response.

NSCLC A549 cells [2] = assay: MTS/PMS cell viability, A549; type: cell-based, human; conditions: for TI > 1: summary, MRC5 vs A549; as to TI > 1: key: '✔' means induction; '-' means non-induction of any of the tested processes
Method: A similar procedure was performed to determine the IC50 of the triterpenes in a normal lung fibroblast cell line (MRC5). In brief, the A549 and MRC5 cells were seeded into 96-well plates at a density of 1 × 10^5 cells/mL in supplemented DMEM medium. […] Then, 10 uL of the MTS reagent from the CellTiter 96® Aqueous Non-Radioactive Cell Proliferation Assay (Promega G5421) was added to each well. Then, we incubated the plates at 37 °C and in a 5% CO2 atmosphere for 1 h. After incubation, the absorbance was measured at 492 nm (n = 8) in a microplate reader spectrophotometer (Thermoscientific Multiskan FC). The cell viability was calculated as follows:% Viability = (sample absorbance − sample media absorbance)/(untreated cells’ absorbance − untreated cells’ media absorbance) × 100
The cell viability data were presented by plotting the values with an average of eight measurements for each treatment (mean ± SD) in at least three independent experiments. The IC50 values were calculated with the GraphPad Prism 9 software (Prism 9; GraphPad by Dotmatics, San Diego, CA, USA) using the dose–response curve.

Structure (SMILES) | MAPK/PI3K expression (in words) (MAPK/PI3K) | MAPK/PI3K inhibition (MAPK/PI3K) | IC50 (NSCLC A549 cells [1]) [µM] | Caspase 3 activation (caspase 3; summary, NSCLC A549 cells) | Early apoptosis, externalization of PS (in words, qualitative) (A549 cells) | Autophagic response (in words) (LC3-II) | TI (NSCLC A549 cells [2]) | Caspase 3 activation (in words) (caspase 3) | Autophagy inhibition (LC3-II) | IC50 (NSCLC A549 cells [2]; Homo sapiens, A549, 24 h, MTS/PMS) [µM] | TI > 1 (NSCLC A549 cells [2]) | TI (NSCLC A549 cells [2]; TI = MRC5 IC50/A549 IC50, >1 means higher selectivity)
C=C(C)[C@@H]1CC[C@]2(C)CC[C@]3(C)[C@H](CC[C@@H]4[C@@]5(C)CC[C@H](O)C(C)(C)[C@@H]5CC[C@]43C)[C@@H]12 [Lupe, lupeol] | did not affect the expression of MAPK/PI3K | - | 80 ± 6 | - | lowest | inhibit the LC3-II activity | 1.26 |  |  |  |  | 
C=C(C)[C@@H]1CC[C@]2(CO)CC[C@]3(C)[C@H](CC[C@@H]4[C@@]5(C)CC[C@H](O)C(C)(C)[C@@H]5CC[C@]43C)[C@@H]12 [Betu, betulin] | slightly inhibit the total expression of MAPK/PI3K |  |  |  | strongest activation | induced an autophagic response similar to that of CisPt | 0.73 | higher caspase 3 activation than CisPt | - | 22 ± 1 | - | 
C[C@H]1[C@H](C)CC[C@]2(C(=O)O)CC[C@]3(C)C(=CC[C@@H]4[C@@]5(C)CC[C@H](O)C(C)(C)[C@@H]5CC[C@]43C)[C@H]12 [UrA, ursolic acid] | induced the simultaneous expression of MAPK and PI3K | - | 23 ± 1 |  | strongest activation | induced an autophagic response similar to that of CisPt | 0.57 | higher caspase 3 activation than CisPt; also recorded: highest | - |  | - | 
C=C(C)[C@@H]1CC[C@]2(C(=O)O)CC[C@]3(C)[C@H](CC[C@@H]4[C@@]5(C)CC[C@H](O)C(C)(C)[C@@H]5CC[C@]43C)[C@@H]12 [BeA, betulinic acid] | did not affect the expression of MAPK/PI3K | - | 15 ± 0.7 |  | lowest |  | 1.27 |  |  |  |  | > 1
